This note sets out measurements from patent US7425631B2 (Amgen Inc., priority 2003, dated 2008).

Bounds are passed on as bounds.

In the assay the target is T1, human B1 receptor (Homo sapiens, UniProt P46663).
T1 construct: expressed in transfected cells
T1 sequence (P46663 1-353): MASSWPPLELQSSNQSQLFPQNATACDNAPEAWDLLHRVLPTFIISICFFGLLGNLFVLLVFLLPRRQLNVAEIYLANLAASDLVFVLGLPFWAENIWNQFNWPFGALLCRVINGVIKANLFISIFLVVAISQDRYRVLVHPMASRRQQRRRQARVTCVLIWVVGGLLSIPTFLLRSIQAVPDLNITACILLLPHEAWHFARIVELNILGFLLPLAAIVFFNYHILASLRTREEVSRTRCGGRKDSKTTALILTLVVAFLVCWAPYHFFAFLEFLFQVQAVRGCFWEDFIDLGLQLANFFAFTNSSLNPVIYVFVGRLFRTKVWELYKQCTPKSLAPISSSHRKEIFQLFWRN
Briefly: In vitro assay of human B1 receptor function using calcium flux (aequorin luminescence). The conditions noted are these: CHO D-/hB1/Aequorin cells, agonist 20 nM des-Arg10-Kallidin (EC80); read-out: binding IC50's to hB1 receptor function. Type of assay: cell-based. As to the method:
Activation of the Gq linked B1 receptor results in an increase in intracellular calcium. […] Aequorin is a 21-kDa photoprotein that forms a bioluminescent complex when linked to the chromophore cofactor coelenterazine.
Following coelenterazine incubation, an automated flash-luminometer platform was used to dispense the B1 antagonist compounds (dissolved in DMSO and diluted with buffer to the desired concentration (final DMSO concentration <1% DMSO)) to the cell plate, a CCD camera situated underneath the cell plate took 12 images of the cell plate at 5 second intervals to determine if there was any agonist activity with the compounds. The hB1 agonist, des-Arg10-Kallidin, was added to the cell plate and another 12 images were recorded to determine the IC50 of the antagonist(s).
For orientation: Calcium flux is commonly read through the fluorescence of an indicator in the cells.
As for `CC(C)(C)NCc1ccc2c(c1)CCC[C@H]2NC(=O)C[C@@H](NS(=O)(=O)c1ccc(Cl)c(Cl)c1)c1ccccc1` [bm, (3R)-3-(((3,4-dichlorophenyl)sulfonyl)amino)-N-((1R)-6-(((1,1-dimethylethyl)amino)methyl)-1,2,3,4-tetrahydro-1-naphthalenyl)-3-phenylpropanamide], the IC50 was < 10 nM.

Take `O=C(CC(NS(=O)(=O)c1ccc(Cl)c(Cl)c1)c1ccc(F)cc1)NC1CCOc2cc(CN3CCCCC3)ccc21` (stereo not drawn) [by, 3-(3,4-Dichloro-benzenesulfonylamino)-3-(4-fluoro-phenyl)-N-(7-piperidin-1-ylmethyl-chroman-4-yl)-propionamide]: the IC50 is < 10 nM.

In the case of `O=C(C[C@@H](NS(=O)(=O)c1ccc(Cl)c(Cl)c1)c1ccc(F)cc1)N[C@@H]1CCCc2cc(CN3CCCCC3)ccc21` [bz, 3-(3,4-Dichloro-benzenesulfonylamino)-3-(4-fluoro-phenyl)-N-(6-piperidin-1-ylmethyl-1,2,3,4-tetrahydro-naphthalen-1-yl)-propionamide], the IC50 was < 10 nM.

As to `COCCNCc1ccc2c(c1)OCC[C@H]2NC(=O)C[C@@H](NS(=O)(=O)c1ccc(Cl)c(Cl)c1)c1ccc(F)cc1` [ce, 3-(3,4-Dichloro-benzenesulfonylamino)-3-(4-fluoro-phenyl)-N-{7-[(2-methoxy-ethylamino)-methyl]-chroman-4-yl}-propionamide], the IC50 is < 10 nM.

As for `CC(C)(C)NCc1ccc2c(c1)CCC[C@H]2NC(=O)C[C@@H](NS(=O)(=O)c1ccc(Cl)c(Cl)c1)c1ccc(F)cc1` [cj, N-[6-(tert-Butylamino-methyl)-1,2,3,4-tetrahydro-naphthalen-1-yl]-3-(3,4-dichloro-benzenesulfonylamino)-3-(4-fluoro-phenyl)-propionamide], the IC50 was < 10 nM.

`CC(C)CNCc1ccc2c(c1)OCC[C@H]2NC(=O)C[C@@H](NS(=O)(=O)c1cccc(C(F)(F)F)c1)c1ccc(F)cc1` [cl, 3-(4-Fluoro-phenyl)-N-[7-(isobutylamino-methyl)-chroman-4-yl]-3-(3-trifluoromethyl-benzenesulfonylamino)-propionamide]: the IC50 is < 10 nM.

Turning to `CC(C)(C)NCc1ccc2c(c1)OCC[C@H]2NC(=O)C[C@@H](NS(=O)(=O)c1cccc(C(F)(F)F)c1)c1ccc(F)cc1` [co, N-[7-(tert-Butylamino-methyl)-chroman-4-yl]-3-(4-fluoro-phenyl)-3-(3-trifluoromethyl-benzenesulfonylamino)-propionamide], the IC50 is < 10 nM.

Regarding `O=C(C[C@@H](NS(=O)(=O)c1cccc(C(F)(F)F)c1)c1ccc(F)cc1)N[C@@H]1CCOc2cc(CN3CCCC3)ccc21` [ct, 3-(4-Fluoro-phenyl)-N-(7-pyrrolidin-1-ylmethyl-chroman-4-yl)-3-(3-trifluoromethyl-benzenesulfonylamino)-propionamide], the IC50 is < 10 nM.

Regarding `CC(C)(C)NCc1ccc2c(c1)CCC[C@H]2NC(=O)C[C@@H](NS(=O)(=O)c1cccc(C(F)(F)F)c1)c1cccc([N+](=O)[O-])c1` [cx, N-[6-(tert-Butylamino-methyl)-1,2,3,4-tetrahydro-naphthalen-1-yl]-3-(3-nitro-phenyl)-3-(3-trifluoromethyl-benzenesulfonylamino)-propionamide], the IC50 is < 10 nM.

Take `CC(C)(C)NCc1ccc2c(c1)CCC[C@H]2NC(=O)C[C@@H](NS(=O)(=O)c1cccc(C(F)(F)F)c1)c1cccc(C#N)c1` [cy, N-[6-(tert-Butylamino-methyl)-1,2,3,4-tetrahydro-naphthalen-1-yl]-3-(3-cyano-phenyl)-3-(3-trifluoromethyl-benzenesulfonylamino)-propionamide]: the IC50 is < 10 nM.

On to `CC(C)(C)c1ccc(S(=O)(=O)N[C@H](CC(=O)N[C@@H]2CCCc3cc(CNC4CCC4)ccc32)c2ccc(F)cc2)cc1` [de, 3-(4-tert-Butyl-benzenesulfonylamino)-N-(6-cyclobutylaminomethyl-1,2,3,4-tetrahydro-naphthalen-1-yl)-3-(4-fluoro-phenyl)-propionamide], for which the IC50 was < 10 nM.

Take `CC(C)(C)c1ccc(S(=O)(=O)N[C@H](CC(=O)N[C@@H]2CCCc3cc(CN4CCCCC4)ccc32)c2ccc(F)cc2)cc1` [dh, 3-(4-tert-Butyl-benzenesulfonylamino)-3-(4-fluoro-phenyl)-N-(6-piperidin-1-ylmethyl-1,2,3,4-tetrahydro-naphthalen-1-yl)-propionamide]: the IC50 was < 10 nM.

`CC(C)CNCc1ccc2c(c1)CCC[C@H]2NC(=O)C[C@@H](NS(=O)(=O)c1ccc(C(C)(C)C)cc1)c1ccc(F)cc1` [dj, 3-(4-tert-Butyl-benzenesulfonylamino)-3-(4-fluoro-phenyl)-N-[6-(isobutylamino-methyl)-1,2,3,4-tetrahydro-naphthalen-1-yl]-propionamide]: the IC50 was < 10 nM.

As for `CC(C)(C)NCc1ccc2c(c1)CCC[C@H]2NC(=O)C[C@@H](NS(=O)(=O)c1ccc(C(C)(C)C)cc1)c1ccc(F)cc1` [do, N-[6-(tert-Butylamino-methyl)-1,2,3,4-tetrahydro-naphthalen-1-yl]-3-(4-tert-butyl-benzenesulfonylamino)-3-(4-fluoro-phenyl)-propionamide], the IC50 is < 10 nM.

Regarding `O=C(C[C@@H](NS(=O)(=O)c1cccc(C(F)(F)F)c1)c1cccc(F)c1)N[C@@H]1CCCc2cc(CN3CCCCC3)ccc21` [dq, 3-(3-Fluoro-phenyl)-N-(6-piperidin-1-ylmethyl-1,2,3,4-tetrahydro-naphthalen-1-yl)-3-(3-trifluoromethyl-benzenesulfonylamino)-propionamide], the IC50 was < 10 nM.

Regarding `O=C(C[C@@H](NS(=O)(=O)c1ccc(Cl)c(Cl)c1)c1cccc(F)c1)N[C@@H]1CCCc2cc(CNC3CCCC3)ccc21` [dx, N-(6-Cyclopentylaminomethyl-1,2,3,4-tetrahydro-naphthalen-1-yl)-3-(3,4-dichloro-benzenesulfonylamino)-3-(3-fluoro-phenyl)-propionamide], the IC50 is < 10 nM.

As to `O=C(C[C@@H](NS(=O)(=O)c1cccc(C(F)(F)F)c1)c1ccc(F)cc1)N[C@@H]1CCCc2cc(CN3CCC(F)CC3)ccc21` [eb, 3-(4-Fluoro-phenyl)-N-[6-(4-fluoro-piperidin-1-ylmethyl)-1,2,3,4-tetrahydro-naphthalen-1-yl]-3-(3-trifluoromethyl-benzenesulfonylamino)-propionamide], the IC50 was < 10 nM.

Take `O=C(C[C@@H](NS(=O)(=O)c1ccc(Cl)c(Cl)c1)c1cccc(Cl)c1)N[C@@H]1CCCc2cc(CN3CCCCC3)ccc21` [ed, 3-(3-Chloro-phenyl)-3-(3,4-dichloro-benzenesulfonylamino)-N-(6-piperidin-1-ylmethyl-1,2,3,4-tetrahydro-naphthalen-1-yl)-propionamide]: the IC50 was < 10 nM.

Regarding `CC(C)(C)NCc1ccc2c(c1)OCC[C@H]2NC(=O)C[C@@H](NS(=O)(=O)c1cc(C(F)(F)F)ccc1Cl)c1ccc(F)cc1` [ej, N-[7-(tert-Butylamino-methyl)-chroman-4-yl]-3-(2-chloro-5-trifluoromethyl-benzenesulfonylamino)-3-(4-fluoro-phenyl)-propionamide], the IC50 is < 10 nM.

As to `CC(C)(C)NCc1ccc2c(c1)CCC[C@H]2NC(=O)C[C@H](NS(=O)(=O)c1cccc(C(F)(F)F)c1)c1ccc([N+](=O)[O-])cc1` [em, N-[6-(tert-Butylamino-methyl)-1,2,3,4-tetrahydro-naphthalen-1-yl]-3-(4-nitro-phenyl)-3-(3-trifluoromethyl-benzenesulfonylamino)-propionamide], the IC50 was < 10 nM.

Consider `O=C(CC(NS(=O)(=O)c1cccc(C(F)(F)F)c1)c1ccc(Cl)cc1)N[C@@H]1CCCc2cc(CN3CCCCC3)ccc21` (stereo partly drawn) [ex, 3-(4-Chloro-phenyl)-N-(6-piperidin-1-ylmethyl-1,2,3,4-tetrahydro-naphthalen-1-yl)-3-(3-trifluoromethyl-benzenesulfonylamino)-propionamide], for which the IC50 was < 10 nM.

`O=C(CC(NS(=O)(=O)c1cccc(C(F)(F)F)c1)c1cc(Cl)cc(Cl)c1)N[C@@H]1CCCc2cc(CN3CCCCC3)ccc21` (stereo partly drawn) [fb, 3-(3,5-Dichloro-phenyl)-N-(6-piperidin-1-ylmethyl-1,2,3,4-tetrahydro-naphthalen-1-yl)-3-(3-trifluoromethyl-benzenesulfonylamino)-propionamide]: the IC50 was < 10 nM.

As for `O=C(CC(NS(=O)(=O)c1cccc(C(F)(F)F)c1)c1ccccc1F)N[C@@H]1CCCc2cc(CN3CCCCC3)ccc21` (stereo partly drawn) [fg, 3-(2-Fluoro-phenyl)-N-(6-piperidin-1-ylmethyl-1,2,3,4-tetrahydro-naphthalen-1-yl)-3-(3-trifluoromethyl-benzenesulfonylamino)-propionamide], the IC50 is < 10 nM.

Consider `O=C(CC(NS(=O)(=O)c1cccc(C(F)(F)F)c1)c1ccc(F)cc1)N[C@@H]1CCCc2cc(CN3CCCCC3)ccc21` (stereo partly drawn) [fh, 3-(4-Fluoro-phenyl)-N-(6-piperidin-1-ylmethyl-1,2,3,4-tetrahydro-naphthalen-1-yl)-3-(3-trifluoromethyl-benzenesulfonylamino)-propionamide], for which the IC50 is < 10 nM.

A word on the IC50: it is the concentration that gives 50% inhibition.
